Assays:
[1] = Affinity of paramagnetic complex towards substrate by PRE method; format: binding
Source text: (§1) Since the relaxivity of the two paramagnetic species involved in the equilibrium, that bound to the substrate molecule and that unbound, are different, the well-established Proton Relaxation Enhancement (PRE) method (Aime S, Fasano M, Terreno E, Botta M in The Chemistry of Contrast Agents in Medical Magnetic Resonance Imaging, Merbach A E, Tóth E (eds), Wiley & Sons: Chichester, 2001, 203-209) may be conveniently used for estimating the affinity of the paramagnetic complex towards the substrate molecule.
(§2) The KA values obtained for the adducts disclosed in the following are measured according to this PRE method.

[2] = Affinity of paramagnetic complex towards substrate by Proton Relaxation Enhancement (PRE) method; format: binding; details: Lactate; pH 7 and 25° C.
Source text: as §1, §2
By adding lactate to an aqueous solution of GdDO3A the following equilibrium takes place: GdDO3A(H2O)2+Lactate ? GdDO3A(Lactate)+2H2O
Since the relaxivity of the two Gd(III) species involved in the equilibrium are different (higher for GdDO3A(H2O)2), the well-consolidated Proton Relaxation Enhancement (PRE) method (Aime S, Fasano M, Terreno E, Botta M in The Chemistry of Contrast Agents in Medical Magnetic Resonance Imaging, Merbach A E, Tóth E (eds), Wiley & Sons: Chichester, 2001, 203-209) may be conveniently used for estimating the affinity of the GdDO3A complex towards Lactate.

binding strength ([1]; inorganic phosphate, pH 7.4 and 25° C.) [M⁻¹] | Molecule | KA ([1]; aspartate, 298 K and pH 7) [M⁻¹] | KA ([1]; oxalate, 298K and pH 7) [M⁻¹] | KA ([1]; citrate, pH 7 and 25° C.) [M⁻¹] | KA [2] [M⁻¹]
– | 10-[(3-carboxyphenyl)methyl]-1,4,7,10-tetraazaciclododecane-1,4,7-triacetic acid gadolinium complex [Gd-3] | 120 | > 50000 | – | –
50 | O=C([O-])CN1CCNCCN(CC(=O)[O-])CCN(CC(=O)[O-])CC1.[Gd+3] [GdDO3A] | – | – | 40 | 150
